Test results reported in PMC4929166, “Pharmacological evaluation of synthetic cannabinoids identified as constituents of spice” (Forensic Toxicology, 2016).
Like-named read-outs stand apart in the source and are kept apart here.

Tests used:
human GPR18 [1] = target: T1, human GPR18 (Homo sapiens, UniProt Q14330); design: method as in PMID 22916707; settings: read-out: Human GPR18 IC50; ref [47]; cited from earlier work
T1 construct: β-galactosidase enzyme fragment (PathHunter complementation tag)
T1 sequence (Q14330 1-331): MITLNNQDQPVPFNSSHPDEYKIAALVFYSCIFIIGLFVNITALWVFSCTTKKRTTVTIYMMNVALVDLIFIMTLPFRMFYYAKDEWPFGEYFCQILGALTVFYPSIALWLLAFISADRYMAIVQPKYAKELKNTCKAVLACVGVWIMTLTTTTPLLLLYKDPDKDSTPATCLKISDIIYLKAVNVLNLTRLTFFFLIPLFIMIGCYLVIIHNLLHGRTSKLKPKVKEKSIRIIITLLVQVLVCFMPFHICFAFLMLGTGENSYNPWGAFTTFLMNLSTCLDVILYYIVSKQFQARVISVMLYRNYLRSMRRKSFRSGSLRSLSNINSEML

human GPR55 [2] = target: T2, human GPR55 (Homo sapiens, UniProt Q9Y2T6); settings: read-out: Human GPR55 IC50; ref [48]; cited from earlier work
T2 construct: β-galactosidase enzyme fragment (PathHunter complementation tag)

CB2 = settings: Fig. 1, standard agonists; ref [14]; cited from earlier work
CB1 = settings: Fig. 1, standard agonists; ref [14]; cited from earlier work
Human CB1 = settings: read-out: Ki Human CB1 (literature) (converted), cited from earlier work
human GPR18 [3] = target: T1, human GPR18; assay: β-Arrestin recruitment assay (PathHunter) at GPR18; assay type: cell-based; settings: for Human GPR18 % activation: percent in brackets beside EC50 >10 µM; for Human GPR18 % inhibition: percent in brackets beside IC50
Method: (§1) Recruitment of β-arrestin to the respective receptor was detected by using β-galactosidase enzyme fragment complementation technology (β-arrestin PathHunter™ assay, DiscoverX, Fremont, CA, USA) as previously described. Data were obtained from three independent experiments, performed in duplicates. Data were analyzed using Graph Pad Prism Version 4.02 (San Diego, CA, USA).

CB2 receptor [4] = target: T3, CB2 receptor (Homo sapiens, UniProt P34972); assay: biochemical; assay type: binding; design: expressed in transfected cells; host or cells: CHO cells (membrane preparation)
Human CB2 = settings: cited from earlier work; for Ki: read-out: Ki Human CB2 (literature) (converted)
human GPR55 [5] = target: T2, human GPR55; assay: β-Arrestin recruitment assay (PathHunter) at GPR55; assay type: cell-based; settings: for IC50: antagonist mode; for Human GPR55 % activation: percent in brackets beside EC50 >10 µM; for Human GPR55 % inhibition: percent in brackets beside IC50
Method: as §1

CB1 receptor [6] = target: T4, CB1 receptor (Homo sapiens, UniProt P21554); assay: biochemical; assay type: binding; design: expressed in transfected cells; host or cells: CHO cells (membrane preparation)
CB2 receptor [7] = target: T3, CB2 receptor; assay: cAMP accumulation assay in CHO cells expressing CB2; assay type: cell-based; design: expressed in transfected cells; host or cells: CHO cells; settings: for efficacy at CB2 receptor (in words): cAMP accumulation, forskolin 10 µM, test concentration 1 µM or 10 µM, normalized to CP55,940
CB1 receptor [8] = target: T4, CB1 receptor; assay: cell-based; assay type: cell-based; design: expressed in transfected cells; host or cells: CHO cells
[9] = Table S1, selectivity index from Ki values
[10] = versus 0.1 nM [3H]CP55,940, CHO cell membranes, mean ± SEM of three to five experiments, read-out: Ki ± SEM Human CB2
[11] = Human GPR55 IC50, β-arrestin assay
[12] = versus 0.1 nM [3H]CP55,940, CHO cell membranes, mean ± SEM of three to five experiments, read-out: Ki ± SEM Human CB1

T4 sequence (P21554 whole entry): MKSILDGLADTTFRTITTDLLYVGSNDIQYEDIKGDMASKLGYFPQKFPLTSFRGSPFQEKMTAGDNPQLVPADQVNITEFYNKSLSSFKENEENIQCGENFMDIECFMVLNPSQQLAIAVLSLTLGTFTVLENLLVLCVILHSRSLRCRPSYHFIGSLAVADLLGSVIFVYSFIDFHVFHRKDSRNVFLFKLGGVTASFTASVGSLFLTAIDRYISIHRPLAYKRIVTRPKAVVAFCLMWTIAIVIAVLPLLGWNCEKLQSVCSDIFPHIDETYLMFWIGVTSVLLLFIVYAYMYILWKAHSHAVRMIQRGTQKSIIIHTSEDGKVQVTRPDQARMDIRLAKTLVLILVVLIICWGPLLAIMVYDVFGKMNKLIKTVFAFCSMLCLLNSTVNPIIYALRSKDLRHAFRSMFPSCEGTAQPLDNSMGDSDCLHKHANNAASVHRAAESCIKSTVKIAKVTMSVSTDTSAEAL
T3 sequence (P34972 whole entry): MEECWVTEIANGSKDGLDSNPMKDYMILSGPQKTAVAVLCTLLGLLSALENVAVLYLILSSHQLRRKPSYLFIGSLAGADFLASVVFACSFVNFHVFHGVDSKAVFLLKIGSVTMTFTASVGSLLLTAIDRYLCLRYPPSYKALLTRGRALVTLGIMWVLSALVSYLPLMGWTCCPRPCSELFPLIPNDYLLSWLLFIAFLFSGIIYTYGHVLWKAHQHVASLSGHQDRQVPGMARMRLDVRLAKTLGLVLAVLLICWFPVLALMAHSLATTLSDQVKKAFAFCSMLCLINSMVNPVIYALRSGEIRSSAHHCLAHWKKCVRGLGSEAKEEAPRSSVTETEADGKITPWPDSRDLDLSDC
T2 sequence (Q9Y2T6 whole entry, the tested form may be a part): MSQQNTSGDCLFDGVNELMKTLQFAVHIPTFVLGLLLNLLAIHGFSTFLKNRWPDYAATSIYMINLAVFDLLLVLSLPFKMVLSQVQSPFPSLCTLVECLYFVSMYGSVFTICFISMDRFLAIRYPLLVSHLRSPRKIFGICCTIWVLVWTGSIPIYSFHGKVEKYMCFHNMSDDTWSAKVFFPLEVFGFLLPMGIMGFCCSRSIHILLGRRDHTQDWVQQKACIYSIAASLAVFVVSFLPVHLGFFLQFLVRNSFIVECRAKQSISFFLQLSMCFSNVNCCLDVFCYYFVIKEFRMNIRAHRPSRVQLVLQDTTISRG

Row | SMILES | Ki (Human CB1; ref Frost et al. [40]) [nM] | EC50 (human GPR18 [3]) [nM] | IC50 (human GPR18 [3]) [nM] | Human GPR18 % activation (human GPR18 [3]; β-arrestin assay) [%] | Human GPR18 % inhibition (human GPR18 [3]; β-arrestin assay) [%] | CB2 selectivity Ki CB1/KiCB2 (CB2 receptor [4]; [9]) | Ki (CB2 receptor [4]; [10]) [nM] | Ki (Human CB2; ref Frost et al. [40]) [nM] | EC50 (human GPR55 [5]) [nM] | IC50 (human GPR55 [5]; [11]) [nM] | Human GPR55 % activation (human GPR55 [5]; β-arrestin assay) [%] | Ki (CB1 receptor [6]; [12]) [nM] | efficacy at CB2 receptor (in words) (CB2 receptor [7]) | Human GPR55 % inhibition (human GPR55 [5]; β-arrestin assay) [%] | other results
1 | CCCCCCC(C)(C)c1ccc([C@@H]2CC(O)CC[C@H]2CCCO)c(O)c1 (single isomer, unassigned; (-)) [Compound 2, (−)-cis-3-[2-hydroxy-4-(1,1-dimethylheptyl)phenyl]-trans-4-(3-hydroxypropyl)cyclohexanol] | – | – | – | – | – | – | – | – | – | – | – | – | – | – | IC50 (human GPR18 [1]): 5990 nM; IC50 (human GPR55 [2]): 1610 nM
2 | CCCCCn1cc(C(=O)c2cccc3ccccc23)c2ccccc21 [Compound 3, JWH-018] | – | – | – | – | – | – | – | – | – | – | – | – | – | – | Ki (CB2): 2.9 nM; Ki (CB1): 9 nM
3 | CCCCCn1cc(C(=O)C2C(C)(C)C2(C)C)c2ccccc21 [Compound 37, UR-144] | 150 | > 10000 | > 10000 | 17 | 14 | 37.5 | 1.49 ± 0.25 | 1.8 | > 10000 | 6700 ± 1650 | −5 | 55.9 ± 6.5 | – | – | –
4 | CC1(C)C(C(=O)c2cn(CCCC(F)(F)F)c3ccccc23)C1(C)C [Compound 41, XLR-12] | 15 | > 10000 | > 10000 | 27 | 13 | 52.6 | 0.831 ± 0.331 | 0.09 | > 10000 | 4560 ± 1970 | −5 | 43.7 ± 5.9 | lower efficacy than Δ^9-THC | – | CB2-selectivity previously reported (Human CB2; ref [40]): 167 fold; EC50 (CB2 receptor [7]): 0.391 nM; CB2-selectivity in functional assay (EC50 CB1 vs CB2) (CB2 receptor [7]; cAMP accumulation EC50 values): 30 fold; efficacy at CB1 receptor (in words) (CB1 receptor [8]; cAMP accumulation, forskolin 10 µM, test concentration 1 µM or 10 µM, normalized to CP55,940): lower efficacy than Δ^9-THC; EC50 (CB1 receptor [8]; full concentration response curve, read-out: CB1: EC50, inhibition of cAMP accumulation): 11.7 ± 6.5 nM
5 | CN1CCCCC1Cn1cc(C(=O)C2C(C)(C)C2(C)C)c2ccccc21 (centres unmarked) [Compound 43, AB005] | 5.5 | > 10000 | > 10000 | −38 | −2 | – | – | 0.48 | > 10000 | > 10000 | 16 | – | lower efficacy than Δ^9-THC | 39 | CB2 selectivity Ki CB1/KiCB2 (CB2 receptor [4]): 57.1; Ki (CB2 receptor [4]): 1.04 nM; efficacy at CB1 receptor (in words) (CB1 receptor [8]): lower efficacy than Δ^9-THC; Ki (CB1 receptor [6]): 59.4 nM
6 | COc1cccc2c(C(=O)C3C4(C)CCC(C4)C3(C)C)c(C)n(CCN3CCOCC3)c12 (centres unmarked) [Compound 48, MN-25] | – | – | – | −12 | 30 | 282 | 2.77 ± 1.59 | – | – | – | −8 | 780 ± 66 | – | 47 | Ki (Human CB1; ref Wroblenski et al.[39]): 245 nM; EC50 (human GPR18 [3]; read-out: Human GPR18 EC50, β-arrestin assay, agonist mode): > 10000 nM; IC50 (human GPR18 [3]; read-out: Human GPR18 IC50, β-arrestin assay, antagonist mode): > 10000 nM; Ki (Human CB2; ref Wroblenski et al.[39]): 11 nM; EC50 (human GPR55 [5]; read-out: Human GPR55 EC50, β-arrestin assay, agonist mode): > 10000 nM; IC50 (human GPR55 [5]; read-out: Human GPR55 IC50, β-arrestin assay): > 10000 nM
